Like-named read-outs stand apart in the source and are kept apart here.
Columns and labels:
[1] = Rat plasma and brain homogenate protein binding by equilibrium dialysis; assay type: in vitro ADME
Procedure: Determination of Plasma and Brain Protein Binding:
Rat plasma and brain homogenate protein in vitro binding is determined using equilibrium dialysis, as described elsewhere [Zamek-Gliszczynski et al., J Pharm Sci, 101:1932-1940, 2012]. The results are reported as fraction unbound in plasma (fu,plasma) and brain (fu,brain), which are then utilized to calculate Kp,uu,brain, as described in Table 1. Rat fu,plasma and fu,brain of the compound of Example 1 are determined to be 0.071 and 0.043, respectively.

[2] = target: T1, ABCB1, human P-glycoprotein (Pgp) (Homo sapiens, UniProt P08183); assay: In vitro determination of efflux by Pgp; bi-directional transport across MDCKII cells; assay type: in vitro ADME; conditions: MDCKII cells expressing human ABCB1, 5 μM substrate, 60 min, B-A/A-B Papp ratios with/without inhibitor
T1 construct: host or cells: MDCKII cells
Procedure: In Vitro Determination of Efflux by ABCB1, Human P-Glycoprotein (Pgp)
MDCKII cells stably expressing human wild-type ABCB1 (Pgp) are obtained from the Netherlands Cancer Institute (Amsterdam, The Netherlands). MDCK cells are maintained as described previously (Desai et al., Mol Pharm 10:1249-1261, 2013).
The assay is essentially conducted as described previously (Desai et al., Mol Pharm 10:1249-1261, 2013). Transport is measured in both directions across uninhibited and inhibited cell monolayers using a substrate concentration of 5 μM diluted from a 10 mM DMSO stock solution (final DMSO concentration of 0.05%) and a single 60-min time interval. […] The apparent permeability coefficients (Papp) are estimated as the slope of the mass transported per 60 min relative to the total recovered mass. The basal-to-apical (B-A)/apical-to-basal (A-B) Papp ratios are calculated in the absence or presence of inhibitor in each cell line for net efflux ratio (NER). The NER of the compound of Example 1 for efflux by Pgp is determined to be 1.7.

[3] = In vivo determination of plasma and brain concentrations and unbound brain-to-plasma partition coefficient (Kp,uu,brain) in rats; conditions: for concentration at 1 h / concentration at 3 h: male, Sprague-Dawley, oral, 10 mg/kg
Procedure: In Vivo Determination of Unbound Brain-to-Plasma Partition Coefficient (Kp,uu,brain) in Rats
Unbound brain-to-plasma partition coefficient (Kp,uu,brain) is one of the key pharmacokinetic parameter for evaluating a compound's ability to cross the blood-brain barrier (BBB) (Hammarlund-Udenaes, M.; Friden, M.; Syvanen, S.; Gupta, A. On the Rate and Extent of Drug Delivery to the Brain. Pharm. Res. 2008, 25 (8), 1737-1750).
Animal studies are performed under protocols approved by the Covance Institutional Animal Care and Use Committee. Male Sprague-Dawley rats weighing 250-350 g are obtained from Harlan Sprague Dawley Inc. (Indianapolis, Ind.). Animals have access to food and water ad libitum before and during the study.
Animals each receive 10 mg/kg of the CGRP receptor antagonist compound of Example 1, administered orally in 10 ml/kg of hydroxyethylcellulose 1% w/v/polysorbate 80 0.25% v/v/Antifoam 1510-US 0.05% v/v/in purified water (probe sonicated).
Three animals per time point are used. […] The blood samples are treated with K3-EDTA anticoagulant, and plasma is obtained by centrifugation at 1600 g for 10 minutes. The brain samples are weighed and homogenized, without perfusion. All samples are stored at −70° C. until analysis by LC-MS/MS to determine the concentration of the compound of Example 1 in plasma and brain at each time point.
Kp,uu,brain is calculated for each time point from the expression below where individual components are derived from a combination of in vitro and in vivo measurements carried out as described above:
[formula] where Ctotal,brain, Cu,brain, Ctotal,plasma and Cu,plasma are total and unbound brain and plasma concentrations, and fu,brain and fu,plasma are fractions unbound in brain and plasma, respectively.

[4] = target: T2, hCGRP (human calcitonin gene-related peptide) receptor (Homo sapiens, UniProt O60894+Q16602); assay: Inhibition of cAMP production by CGRP receptor antagonists in SK-N-MC cells (HTRF); assay type: cell-based; conditions: 0.8 nM human CGRP challenge, agonist-corrected IC50, mean±SEM, n=11, read-out: Kb measured at human CGRP
T2 construct: Cultured SK-N-MC neuroblastoma cells that endogenously express the hCGRP receptor (ATCC); host or cells: SK-N-MC neuroblastoma cells
Text: Inhibition of cAMP Production by CGRP Receptor Antagonists
The hCGRP (human calcitonin gene-related peptide) receptor is functionally coupled to the Gas proteins. Stimulation of hCGRP results in an increased synthesis of intracellular cAMP and can be blocked by the addition of receptor antagonists. Receptor activity is thus a reflection of the amount of cAMP present within cells which can be detected using standard in vitro technology.
Cultured SK-N-MC neuroblastoma cells that endogenously express the hCGRP receptor (ATCC) are grown in Eagle's Minimum essential medium (HYCLONE™) supplemented with 10% heat-inactivated Fetal bovine serum (FBS; GIBCO®), Non-Essential Amino Acids (GIBCO®), 1 mM sodium pyruvate, 2 mM L-glutamine, 100 U/mL of penicillin, and 10 μg/mL of streptomycin to about 70% confluency. […]
The amount of intracellular cAMP is quantitated using HTRF technology (Cisbio) as per vendor instructions. […] The HTRF signal is immediately detected using an ENVISION® plate reader (Perkin-Elmer) to calculate the ratio of fluorescence at […]. […] Relative EC50 values are calculated from the top-bottom range of the concentration response curve using a four-parameter logistic curve fitting program (ACTIVITYBASE® v5.3.1.22 or GENEDATA SCREENER® v12.0.4), and Kb values are estimated as agonist-corrected IC50 values using the equation: Kb=(IC50)/[1+([Agonist]/EC50)]. […]

T2 sequence (Q16602 23-461): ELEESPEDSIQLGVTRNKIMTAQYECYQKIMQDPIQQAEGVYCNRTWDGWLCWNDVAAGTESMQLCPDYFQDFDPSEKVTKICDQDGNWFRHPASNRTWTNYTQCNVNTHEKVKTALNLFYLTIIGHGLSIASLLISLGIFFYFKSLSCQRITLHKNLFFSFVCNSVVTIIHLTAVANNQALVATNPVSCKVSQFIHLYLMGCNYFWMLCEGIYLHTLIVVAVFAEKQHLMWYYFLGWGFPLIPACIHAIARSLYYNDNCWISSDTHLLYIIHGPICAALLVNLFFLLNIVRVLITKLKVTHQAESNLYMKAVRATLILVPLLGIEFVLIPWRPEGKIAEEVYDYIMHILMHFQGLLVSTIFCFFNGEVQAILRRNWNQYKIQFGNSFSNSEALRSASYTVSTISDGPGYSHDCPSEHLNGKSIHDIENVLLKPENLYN
T2 sequence (O60894 27-148): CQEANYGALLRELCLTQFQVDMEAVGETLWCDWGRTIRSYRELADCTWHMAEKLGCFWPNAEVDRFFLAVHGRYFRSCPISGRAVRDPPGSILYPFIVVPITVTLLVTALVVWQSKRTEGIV
T1 sequence (P08183 whole entry): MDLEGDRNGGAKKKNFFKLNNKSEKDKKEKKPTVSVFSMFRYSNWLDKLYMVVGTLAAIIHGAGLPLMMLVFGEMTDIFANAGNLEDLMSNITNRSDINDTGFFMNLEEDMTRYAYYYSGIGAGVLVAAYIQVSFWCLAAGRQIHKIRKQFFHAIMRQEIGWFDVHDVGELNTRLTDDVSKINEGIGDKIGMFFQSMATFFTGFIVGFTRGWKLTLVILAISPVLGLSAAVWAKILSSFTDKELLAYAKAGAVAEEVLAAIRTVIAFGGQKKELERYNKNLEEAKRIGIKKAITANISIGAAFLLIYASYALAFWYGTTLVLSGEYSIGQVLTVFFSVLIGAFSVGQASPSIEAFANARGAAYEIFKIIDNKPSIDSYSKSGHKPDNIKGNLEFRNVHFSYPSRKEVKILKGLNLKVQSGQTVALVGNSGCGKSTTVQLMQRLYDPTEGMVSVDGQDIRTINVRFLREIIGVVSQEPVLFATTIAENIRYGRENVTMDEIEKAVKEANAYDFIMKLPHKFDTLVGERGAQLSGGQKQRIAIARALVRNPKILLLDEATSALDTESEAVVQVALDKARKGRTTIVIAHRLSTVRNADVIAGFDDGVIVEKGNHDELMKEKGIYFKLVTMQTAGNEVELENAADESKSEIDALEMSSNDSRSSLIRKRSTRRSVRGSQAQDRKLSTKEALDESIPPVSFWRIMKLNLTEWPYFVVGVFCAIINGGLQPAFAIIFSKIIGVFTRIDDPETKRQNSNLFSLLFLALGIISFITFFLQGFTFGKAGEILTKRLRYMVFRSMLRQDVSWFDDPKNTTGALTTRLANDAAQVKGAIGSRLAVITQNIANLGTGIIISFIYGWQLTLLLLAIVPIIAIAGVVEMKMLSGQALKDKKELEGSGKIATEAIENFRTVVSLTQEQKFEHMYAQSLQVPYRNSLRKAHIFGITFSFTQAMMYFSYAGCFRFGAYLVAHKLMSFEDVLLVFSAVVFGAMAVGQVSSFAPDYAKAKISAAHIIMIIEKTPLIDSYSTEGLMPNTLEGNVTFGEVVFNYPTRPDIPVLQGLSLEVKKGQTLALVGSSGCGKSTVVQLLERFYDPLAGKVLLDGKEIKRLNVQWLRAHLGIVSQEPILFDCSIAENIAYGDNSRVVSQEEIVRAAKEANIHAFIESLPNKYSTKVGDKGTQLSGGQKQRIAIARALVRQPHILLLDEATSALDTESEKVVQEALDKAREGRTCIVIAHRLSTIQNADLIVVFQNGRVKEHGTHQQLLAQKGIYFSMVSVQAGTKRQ

fraction unbound in brain (fu,brain) ([1]; rat brain homogenate): 0.043 | fraction unbound ([1]; rat plasma, read-out: fraction unbound in plasma (fu,plasma)): 0.071 | net efflux ratio (NER) for efflux by Pgp [2]: 1.7 | Unbound brain conc. (Cu,brain) ([3]; 1.0 hr post 10 mg/kg oral dose, male Sprague-Dawley rats, using rat fu,brain 0.043, mean ± SD): 41 ± 15 nM | Unbound brain conc. (Cu,brain) ([3]; 3.0 hr post 10 mg/kg oral dose, male Sprague-Dawley rats, using rat fu,brain 0.043, mean ± SD): 22 ± 5 nM | concentration at 1 h ([3]; rat, brain, 1.0 hr post 10 mg/kg oral dose, mean ± SD, read-out: Total brain conc. (Ctotal,brain)): 962 ± 341 nM | concentration at 1 h ([3]; rat, brain, 1.0 hr post 10 mg/kg oral dose, using rat fu,brain 0.043, mean ± SD, read-out: Unbound brain conc. (Cu,brain)): 41 ± 15 nM | concentration at 3 h ([3]; rat, brain, 3.0 hr post 10 mg/kg oral dose, mean ± SD, read-out: Total brain conc. (Ctotal,brain)): 515 ± 111 nM | concentration at 3 h ([3]; rat, brain, 3.0 hr post 10 mg/kg oral dose, using rat fu,brain 0.043, mean ± SD, read-out: Unbound brain conc. (Cu,brain)): 22 ± 5 nM | concentration at 1 h ([3]; rat, plasma, 1.0 hr post 10 mg/kg oral dose, mean ± SD, read-out: Total plasma conc. (Ctotal,plasma)): 655 ± 183 nM | concentration at 1 h ([3]; rat, plasma, 1.0 hr post 10 mg/kg oral dose, using rat fu,plasma 0.071, mean ± SD, read-out: Unbound plasma conc. (Cu,plasma)): 47 ± 13 nM | concentration at 3 h ([3]; rat, plasma, 3.0 hr post 10 mg/kg oral dose, mean ± SD, read-out: Total plasma conc. (Ctotal,plasma)): 368 ± 127 nM | concentration at 3 h ([3]; rat, plasma, 3.0 hr post 10 mg/kg oral dose, using rat fu,plasma 0.071, mean ± SD, read-out: Unbound plasma conc. (Cu,plasma)): 26 ± 9 nM | Kp uu at 1 h ([3]; rat, brain/plasma, 1.0 hr post 10 mg/kg oral dose, male Sprague-Dawley rats, mean ± SD): 0.89 ± 0.17 | Kp uu at 3 h ([3]; rat, brain/plasma, 3.0 hr post 10 mg/kg oral dose, male Sprague-Dawley rats, mean ± SD): 0.93 ± 0.43 | Kb [4]: 0.57 ± 0.25 nM
Compound: Cc1cc(OCc2ccc([C@@H](C)[C@]3(C)CC(=O)NC3=O)cc2)cc(C2CC2)n1 [Example 1, (3S)-3-[(1R)-1-[4-[(2-cyclopropyl-6-methyl-4-pyridyl)oxymethyl]phenyl]ethyl]-3-methyl-pyrrolidine-2,5-dione]

From US10336726B2, “3-methyl-pyrrolidine-2,5-dione derivatives useful as CGRP receptor antagonists” (Eli Lilly and Company, priority 2017, dated 2019)
